Several values for one entry are separate records, joined by “and”; a condition that tells them apart may be missing. Identical values can stand only once. Inconclusive results and toxic doses are left out. Cut-off read from the data, not from the text of the source: active = T/C of 150% or more; inactive = T/C below 125%.
System: L1210 leukemia ip in BDF1 mice, survival T/C
Assay: NCI In Vivo Anticancer Drug Screen. Data for tumor model L1210 Leukemia (intraperitoneal) in B6D2F1 (BDF1) mice
Conditions: endpoint: mean survival time, vehicle: saline, higher = longer survival
Outline: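 Antitumor effect is assessed in tumor-bearing animals. Survival in the compound arm is compared with a vehicle-dosed control arm and expressed as their quotient.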

Measured: T/C

COc1cc(C)c(C(=O)Oc2cc(C)c(C(=O)O)c(O)c2C)c(OC)c1C
inactive: dose: 6.25 mg/kg/injection, schedule: Q01DX009 (ip) 95 % of control | dose: 12.5 mg/kg/injection, schedule: Q01DX009 (ip) 98 % of control | dose: 25.0 mg/kg/injection, schedule: Q01DX009 (ip) 97 % of control and 98 % of control | dose: 37.5 mg/kg/injection, schedule: Q01DX Z (ip) 93 % of control | dose: 75.0 mg/kg/injection, schedule: Q01DX Z (ip) 98 % of control | dose: 100.0 mg/kg/injection, schedule: Q01DX Z (ip) 96 % of control | dose: 150.0 mg/kg/injection, schedule: Q01DX Z (ip) 93 % of control | dose: 300.0 mg/kg/injection, schedule: Q01DX Z (ip) 98 % of control
